The values below come from patent US20130029970A1 (priority 2009, published 2013).

The EC50 is the midpoint of the concentration-response curve.

The target in one assay is T1, human CB2 (hCB2) (Homo sapiens, UniProt P34972).
T1 construct: (cDNA clone) CNR0200000
Description: 35S GTPγS binding assay, hCB2 agonist. Type of assay: biochemical. To be noted: GTPγS agonist, HEK-293 membranes; read-out: hCB2 EC50 (GTPyS ag). In outline: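 Agonist-stimulated [35S]GTPγS (0.1 nM) binding measured by scintillation proximity after 90 min at room temperature. Reaction buffer: 50 mM HEPES pH 7.4, 100 mM NaCl, 5 mM MgCl2, 0.001% saponin plus 20 uM GDP. Membranes (5 μg) came from transfected cells expressing hCB2 cDNA (pcDNA3.1+ vector).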

A further assay addresses T2, human CB2 receptors (Homo sapiens, UniProt P34972).
T2 construct: (cDNA clone) CNR0200000
Put plainly: cAMP assay in HEK-293 cells, hCB2 agonist. Type of assay: cell-based. The following applies: inhibition of forskolin-stimulated cAMP, HEK-293 cells; read-out: hCB2 EC50 (cAMP ag). In outline:
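Stable hCB2 HEK-293 cells in HBSS/10 mM HEPES/0.1% fatty-acid-free BSA incubated 30 min at 37° C with compound; forskolin 90 uM in 3× compound mix.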

A further assay has as its target T3, human CB1 receptors (Homo sapiens, UniProt P21554).
T3 construct: (cDNA clone) CNR01L000
Put plainly: cAMP assay in HEK-293 cells, hCB1 agonist. To be noted: inhibition of forskolin-stimulated cAMP, HEK-293 cells; for EC50: read-out: hCB1 EC50 (cAMP ag). Type of assay: cell-based. In outline: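 Agonist EC50 taken as concentration giving half inhibition of forskolin-driven cAMP, normalized to forskolin maximum, from sigmoidal curves. Whole HEK-293 cells stably expressing hCB1, in HEPES/BSA-containing HBSS, exposed 30 min at 37° C. to compound with forskolin (90 uM in 3× dilution); cAMP read after lysis.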

Bounds are passed on as bounds.

T3 sequence (P21554 whole entry): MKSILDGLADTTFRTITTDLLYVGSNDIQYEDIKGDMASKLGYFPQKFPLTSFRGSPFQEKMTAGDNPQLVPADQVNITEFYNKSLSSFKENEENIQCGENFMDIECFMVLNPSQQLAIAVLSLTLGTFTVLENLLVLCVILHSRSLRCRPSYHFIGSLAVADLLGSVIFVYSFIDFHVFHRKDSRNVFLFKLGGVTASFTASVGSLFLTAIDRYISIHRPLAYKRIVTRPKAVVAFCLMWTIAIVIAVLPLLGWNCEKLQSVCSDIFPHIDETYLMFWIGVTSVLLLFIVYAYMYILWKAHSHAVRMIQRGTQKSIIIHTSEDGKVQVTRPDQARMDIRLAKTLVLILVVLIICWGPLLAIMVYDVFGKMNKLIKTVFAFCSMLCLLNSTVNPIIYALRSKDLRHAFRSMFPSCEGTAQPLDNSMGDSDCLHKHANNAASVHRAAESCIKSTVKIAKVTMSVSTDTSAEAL
T1 sequence (P34972 whole entry): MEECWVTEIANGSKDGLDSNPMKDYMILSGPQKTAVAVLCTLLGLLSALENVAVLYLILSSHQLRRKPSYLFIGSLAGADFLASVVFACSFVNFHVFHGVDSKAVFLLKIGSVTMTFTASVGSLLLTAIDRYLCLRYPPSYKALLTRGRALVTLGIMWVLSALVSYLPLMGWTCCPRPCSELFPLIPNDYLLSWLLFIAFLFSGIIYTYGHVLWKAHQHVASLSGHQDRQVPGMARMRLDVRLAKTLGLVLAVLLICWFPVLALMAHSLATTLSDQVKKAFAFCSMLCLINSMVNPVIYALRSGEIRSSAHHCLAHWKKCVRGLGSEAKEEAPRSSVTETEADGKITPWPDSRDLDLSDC
T2 sequence (P34972 whole entry): as above

Consider `COc1ncccc1C(=O)c1cc2cc(C)n(CCN3CCOCC3)c2s1` [Compound 47, (2-Methoxypyridin-3-yl)(5-methyl-6-(2-morpholinoethyl)-6H-thieno[2,3-b]pyrrol-2-yl)methanone], for which the EC50 at human CB2 (hCB2) is 0.1 to 1 µM; at human CB2 receptors, under 0.1 µM. In addition, the “hCB1 EC50 (cAMP ag, nM)” value at human CB1 receptors is “NS (NS means “Not Significant,” which means less than 30% agonist activity when compared to the positive control.)”.

As for `COc1ccc(C(=O)c2cc3cc(C)n(S(=O)(=O)N(C)C)c3s2)cc1` [Compound 51, 2-(4-Methoxybenzoyl)-N,N,5-trimethyl-6H-thieno[2,3-b]pyrrole-6-sulfonamide], the EC50 on human CB2 (hCB2) and on human CB2 receptors was under 0.1 µM throughout. Further, at human CB1 receptors, the “hCB1 EC50 (cAMP ag, nM)” value is listed as “NS (NS means “Not Significant,” which means less than 30% agonist activity when compared to the positive control.)”.

Take `COc1ccc(C(=O)c2cc3cc(C)n(S(=O)(=O)N4CCOCC4)c3s2)cc1` [Compound 53, (4-methoxyphenyl)(5-methyl-6-(morpholinosulfonyl)-6H-thieno[2,3-b]pyrrol-2-yl)methanone]: the 50% effective concentration (EC50) at human CB2 (hCB2), on human CB2 receptors and at human CB1 receptors was under 0.1 µM throughout.

With `Cc1cc2cc(C(=O)c3ccc(F)cc3)sc2n1CCN1CCOCC1` [Compound 54, (4-Fluorophenyl)(5-methyl-6-(2-morpholinoethyl)-6H-thieno[2,3-b]pyrrol-2-yl)methanone], the EC50 on human CB2 (hCB2) and at human CB2 receptors was under 0.1 µM throughout. In addition, the “hCB1 EC50 (cAMP ag, nM)” value on human CB1 receptors was “NS (NS means “Not Significant,” which means less than 30% agonist activity when compared to the positive control.)”.

As to `CCS(=O)(=O)n1c(C)cc2cc(C(=O)c3ccc(OC)cc3)sc21` [Compound 56, (6-(Ethylsulfonyl)-5-methyl-6H-thieno[2,3-b]pyrrol-2-yl)(4-methoxyphenyl)methanone], the EC50 at human CB2 (hCB2) and at human CB2 receptors was under 0.1 µM throughout. Moreover, the “hCB1 EC50 (cAMP ag, nM)” value at human CB1 receptors is given as “NS (NS means “Not Significant,” which means less than 30% agonist activity when compared to the positive control.)”.

Consider `COc1ccc(C(=O)c2cc3cc(C)n(S(=O)(=O)CC4CCOCC4)c3s2)cc1` [Compound 57, (4-Methoxyphenyl)(5-methyl-6-((tetrahydro-2H-pyran-4-yl)methylsulfonyl)-6H-thieno[2,3-b]pyrrol-2-yl)methanone], for which the half-maximal effective concentration (EC50) on human CB2 (hCB2), at human CB2 receptors and on human CB1 receptors was under 0.1 µM throughout.

Take `COc1ccc(C(=O)c2cc3cc(C)n(CCN4CCOCC4)c3s2)cn1` [Compound 58, (6-Methoxypyridin-3-yl)(5-methyl-6-(2-morpholinoethyl)-6H-thieno[2,3-b]pyrrol-2-yl)methanone]: the EC50 on human CB2 (hCB2) and at human CB2 receptors was under 0.1 µM each time. Moreover, on human CB1 receptors, the “hCB1 EC50 (cAMP ag, nM)” value is “NS (NS means “Not Significant,” which means less than 30% agonist activity when compared to the positive control.)”.

With `Cc1cc2cc(C(=O)c3ccc(C(F)(F)F)cc3)sc2n1CCN1CCOCC1` [Compound 60, (5-Methyl-6-(2-morpholinoethyl)-6H-thieno[2,3-b]pyrrol-2-yl)(4-(trifluoromethyl)phenyl)methanone], the results for the EC50 on human CB2 (hCB2) and on human CB2 receptors were 1 to 10 µM and under 0.1 µM, respectively. Also, the “hCB1 EC50 (cAMP ag, nM)” value at human CB1 receptors was “NS (NS means “Not Significant,” which means less than 30% agonist activity when compared to the positive control.)”.

As for `COc1ccc(C(=O)c2cc3cc(C)n(CC4CCOCC4)c3s2)cc1` [Compound 62, (4-Methoxyphenyl)(5-methyl-6-((tetrahydro-2H-pyran-4-yl)methyl)-6H-thieno[2,3-b]pyrrol-2-yl)methanone], the concentration for a half-maximal effect (EC50) is under 0.1 µM on human CB2 (hCB2), under 0.1 µM on human CB2 receptors and 0.1 to 1 µM on human CB1 receptors.

Regarding `COc1ccc(C(=O)c2cc3cc(C)n(CCN4CCOCC4)c3s2)c(Cl)c1` [Compound 70, (2-Chloro-4-methoxyphenyl)(5-methyl-6-(2-morpholinoethyl)-6H-thieno[2,3-b]pyrrol-2-yl)methanone], the results for the EC50 on human CB2 (hCB2), on human CB2 receptors and on human CB1 receptors were under 0.1 µM, under 0.1 µM and 0.1 to 1 µM, respectively.

Regarding `COc1ccc(C(=O)c2cc3cc(C)n(CCN4CCCCC4)c3s2)cc1` [Compound 78, (4-Methoxyphenyl)(5-methyl-6-(2-(piperidin-1-yl)ethyl)-6H-thieno[2,3-b]pyrrol-2-yl)methanone], the EC50 is under 0.1 µM at human CB2 (hCB2), under 0.1 µM on human CB2 receptors and 1 to 10 µM at human CB1 receptors.

For `COc1ccc(C(=O)c2cc3cc(C)n(CCC4CCOCC4)c3s2)cc1` [Compound 82, (4-Methoxyphenyl)(5-methyl-6-(2-(tetrahydro-2H-pyran-4-yl)ethyl)-6H-thieno[2,3-b]pyrrol-2-yl)methanone], the results for the EC50 on human CB2 (hCB2), on human CB2 receptors and at human CB1 receptors were under 0.1 µM, under 0.1 µM and 0.1 to 1 µM, respectively.

For the compound `COc1ccc(C(=O)c2cc3cc(C)n(Cc4ccccc4)c3s2)cc1` [Compound 84, (6-Benzyl-5-methyl-6H-thieno[2,3-b]pyrrol-2-yl)(4-methoxyphenyl)methanone], the EC50 at human CB2 (hCB2) was 0.1 to 1 µM; on human CB2 receptors, under 0.1 µM. For the same compound, the “hCB1 EC50 (cAMP ag, nM)” value on human CB1 receptors is “NS (NS means “Not Significant,” which means less than 30% agonist activity when compared to the positive control.)”.

Consider `COc1ccc(C(=O)c2cc3cc(C)n(CCCCl)c3s2)c(Cl)c1` [Compound 85, (2-Chloro-4-methoxyphenyl)(6-(3-chloropropyl)-5-methyl-6H-thieno[2,3-b]pyrrol-2-yl)methanone], for which the results for the EC50 on human CB2 (hCB2), at human CB2 receptors and at human CB1 receptors were under 0.1 µM, under 0.1 µM and 1 to 10 µM, respectively.

Turning to `COc1ccc(C(=O)c2cc3cc(C)n(CCCNS(C)(=O)=O)c3s2)c(F)c1` [Compound 87, N-(3-(2-(2-Fluoro-4-methoxybenzoyl)-5-methyl-6H-thieno[2,3-b]pyrrol-6-yl)propyl)methanesulfonamide], the EC50 at human CB2 (hCB2) and on human CB2 receptors was under 0.1 µM throughout. Moreover, the “hCB1 EC50 (cAMP ag, nM)” value at human CB1 receptors is reported as “NS (NS means “Not Significant,” which means less than 30% agonist activity when compared to the positive control.)”.

Turning to `COc1ccc(C(=O)c2cc3cc(C)n(CCCNS(C)(=O)=O)c3s2)c(Cl)c1` [Compound 91, N-(3-(2-(2-Chloro-4-methoxybenzoyl)-5-methyl-6H-thieno[2,3-b]pyrrol-6-yl)propyl)methanesulfonamide], the EC50 on human CB2 (hCB2) and on human CB2 receptors was under 0.1 µM throughout. Moreover, the “hCB1 EC50 (cAMP ag, nM)” value at human CB1 receptors was “NS (NS means “Not Significant,” which means less than 30% agonist activity when compared to the positive control.)”.

Turning to `COc1ccc(C(=O)c2cc3cc(C)n(CCN4CCOCC4)c3s2)c(C(F)(F)F)c1` [Compound 119, (4-Methoxy-2-(trifluoromethyl)phenyl)(5-methyl-6-(2-morpholinoethyl)-6H-thieno[2,3-b]pyrrol-2-yl)methanone], the EC50 at human CB2 (hCB2) is under 0.1 µM; at human CB2 receptors it was under 0.1 µM; on human CB1 receptors, 0.1 to 1 µM.

Regarding `COc1ccc(C(=O)c2cc3cc(C)n(CCN4CCOCC4)c3s2)c(OC)c1` [Compound 120, (2,4-Dimethoxyphenyl)(5-methyl-6-(2-morpholinoethyl)-6H-thieno[2,3-b]pyrrol-2-yl)methanone], the figures for the EC50 at human CB2 (hCB2), at human CB2 receptors and at human CB1 receptors were under 0.1 µM, under 0.1 µM and 0.1 to 1 µM, respectively.

As for `Cc1ccc(C(=N)c2cc3cc(C)n(CCN4CCOCC4)c3s2)cc1` [Compound 121, (5-methyl-6-(2-morpholinoethyl)-6H-thieno[2,3-b]pyrrol-2-yl)(p-tolyl)methanimine], the concentration for a half-maximal effect (EC50) on human CB2 (hCB2) and on human CB2 receptors was under 0.1 µM each time. Also, at human CB1 receptors, the “hCB1 EC50 (cAMP ag, nM)” value is given as “NS (NS means “Not Significant,” which means less than 30% agonist activity when compared to the positive control.)”.

For the compound `CCOc1ccc(C(=O)c2cc3cc(C)n(CCN4CCOCC4)c3s2)c(Cl)c1` [Compound 126, (2-chloro-4-ethoxyphenyl)(5-methyl-6-(2-morpholinoethyl)-6H-thieno[2,3-b]pyrrol-2-yl)methanone], the EC50 was under 0.1 µM on human CB2 (hCB2), under 0.1 µM on human CB2 receptors and 1 to 10 µM on human CB1 receptors.

Consider `COc1ccc(C(=O)c2cc3cc(C)n(CCN4CCOCC4)c3s2)cc1F` [Compound 128, (3-fluoro-4-methoxyphenyl)(5-methyl-6-(2-morpholinoethyl)-6H-thieno[2,3-b]pyrrol-2-yl)methanone], for which the figures for the EC50 on human CB2 (hCB2) and at human CB2 receptors were under 0.1 µM and 0.1 to 1 µM, respectively. Further, the “hCB1 EC50 (cAMP ag, nM)” value at human CB1 receptors is given as “NS (NS means “Not Significant,” which means less than 30% agonist activity when compared to the positive control.)”.

In the case of `Cc1cc2cc(C(=O)c3ccc(C#N)cc3)sc2n1CCN1CCOCC1` [Compound 129, 4-(5-methyl-6-(2-morpholinoethyl)-6H-thieno[2,3-b]pyrrole-2-carbonyl)benzonitrile], the EC50 at human CB2 (hCB2) is under 0.1 µM; on human CB2 receptors, 0.1 to 1 µM. In addition, the “hCB1 EC50 (cAMP ag, nM)” value on human CB1 receptors is “NS (NS means “Not Significant,” which means less than 30% agonist activity when compared to the positive control.)”.
